Measurements published in US8481750B2 (Boehringer Ingelheim International GmbH, priority 2009, dated 2013).

target: LFA-1 binding to ICAM-1 (Homo sapiens, UniProt P05107+P20701); test: Inhibition of LFA-1 binding to ICAM-1 (LFA-1/Biotin-sICAM-1 AlphaScreen molecular assay); conditions: highest compound concentration 1 μM in 1% DMSO, 37° C., 90 minutes
Text: Assay to Determine Inhibition of LFA-1 Binding to ICAM-1
This assay protocol is designed to study the direct antagonism, by a test compound, of the interaction of ICAM-1 with the Leukointegrin CD18/CD11a (LFA-1).
The LFA-1/Biotin-sICAM-1 molecular assay measures the ability of test compounds to inhibit binding of LFA-1 to Biotinylated-sICAM using AlphaScreen technology (Ref: Wilson, J, Rossi, C P, Carboni, S, Fremaux, C, Perrin, D, Soto, C, Kosco-Vilbois, M, and Scheer, A: A Homogeneous 384-Well High-Throughput Binding Assay for a TNF Receptor Using Alphascreen Technology. J Biomol Screen 2003; 8:522-532) that uses TS2/4(anti-LFA-1)-custom conjugated AlphaLisa acceptor beads and streptavidin-coated donor beads from PerkinElmer. The assay was performed in white OptiPlates-384 in a volume of 60 μL using assay buffer (Dulbecco's PBS containing calcium and magnesium, 2 mM MgCl2, 0.1 mM PMSF, 0.1% BSA, pH 7.1). To each well, Biotin-sICAM was added followed by purified LFA-1 (in buffer of 50 mM triethylamine, 150 mM NaCl, 1% beta octylglucoside, 2 mM MgCl2 neutralized to pH with 1M Tris-HCl, pH 7.5). For compound testing, compound was added in 5 uL to the above in 25 uL. LFA-1 and Biotin-sICAM-1 were used at concentrations that would yield a signal to background ratio of 8-10. The highest concentration of compound was 1 μM in 1% DMSO. Positive controls were wells without compound containing LFA-1, while blanks were wells without both compound and LFA-1. Plates were mixed and incubated at 37° C. for 90 minutes. This was followed by addition of 15 μL/well TS2/4-congugated acceptor beads diluted in PBS containing 0.1% BSA for a final concentration of 10 μg/mL. The plates were mixed and incubated in the dark for 30 minutes at room temperature followed by addition of 15 μL/well streptavidin-coated donor beads diluted in PBS containing 0.1% BSA at a final concentration of 15 μg/mL. The plates were mixed and incubated in the dark for 60 minutes at room temperature and then read on an EnVision Multilabel Reader using AlphaScreen 384-well OptiPlate protocol.

Sequence of LFA-1 binding to ICAM-1 (P20701 26-1170): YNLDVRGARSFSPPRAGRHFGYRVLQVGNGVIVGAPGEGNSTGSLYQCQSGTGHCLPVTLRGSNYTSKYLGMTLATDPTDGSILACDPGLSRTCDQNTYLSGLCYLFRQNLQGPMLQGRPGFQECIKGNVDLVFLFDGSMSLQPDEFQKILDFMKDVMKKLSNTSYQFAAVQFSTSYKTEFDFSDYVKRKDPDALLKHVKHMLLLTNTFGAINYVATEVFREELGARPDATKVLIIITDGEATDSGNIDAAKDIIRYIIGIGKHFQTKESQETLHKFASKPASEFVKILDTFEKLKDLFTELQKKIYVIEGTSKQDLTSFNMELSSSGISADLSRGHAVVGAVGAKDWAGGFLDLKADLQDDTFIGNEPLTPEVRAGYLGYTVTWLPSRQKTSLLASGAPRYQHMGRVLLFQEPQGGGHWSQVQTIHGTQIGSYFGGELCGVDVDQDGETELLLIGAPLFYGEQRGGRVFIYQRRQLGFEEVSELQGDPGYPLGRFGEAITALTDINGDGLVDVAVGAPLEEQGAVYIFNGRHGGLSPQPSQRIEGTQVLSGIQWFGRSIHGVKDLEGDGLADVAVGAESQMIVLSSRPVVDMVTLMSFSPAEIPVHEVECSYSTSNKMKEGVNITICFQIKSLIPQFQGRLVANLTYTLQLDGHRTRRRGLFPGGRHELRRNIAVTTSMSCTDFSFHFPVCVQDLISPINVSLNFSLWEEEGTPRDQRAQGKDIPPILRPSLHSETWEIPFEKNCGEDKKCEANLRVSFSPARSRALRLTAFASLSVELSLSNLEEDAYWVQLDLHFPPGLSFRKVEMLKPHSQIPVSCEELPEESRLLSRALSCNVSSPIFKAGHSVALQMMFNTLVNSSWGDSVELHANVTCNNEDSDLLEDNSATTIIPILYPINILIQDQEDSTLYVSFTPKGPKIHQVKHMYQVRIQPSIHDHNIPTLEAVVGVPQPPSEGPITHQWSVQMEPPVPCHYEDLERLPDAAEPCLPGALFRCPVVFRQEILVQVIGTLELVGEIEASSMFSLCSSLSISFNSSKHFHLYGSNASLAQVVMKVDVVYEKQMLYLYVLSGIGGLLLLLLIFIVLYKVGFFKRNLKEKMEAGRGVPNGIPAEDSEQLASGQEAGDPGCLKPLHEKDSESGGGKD
Sequence of LFA-1 binding to ICAM-1 (P05107 23-769): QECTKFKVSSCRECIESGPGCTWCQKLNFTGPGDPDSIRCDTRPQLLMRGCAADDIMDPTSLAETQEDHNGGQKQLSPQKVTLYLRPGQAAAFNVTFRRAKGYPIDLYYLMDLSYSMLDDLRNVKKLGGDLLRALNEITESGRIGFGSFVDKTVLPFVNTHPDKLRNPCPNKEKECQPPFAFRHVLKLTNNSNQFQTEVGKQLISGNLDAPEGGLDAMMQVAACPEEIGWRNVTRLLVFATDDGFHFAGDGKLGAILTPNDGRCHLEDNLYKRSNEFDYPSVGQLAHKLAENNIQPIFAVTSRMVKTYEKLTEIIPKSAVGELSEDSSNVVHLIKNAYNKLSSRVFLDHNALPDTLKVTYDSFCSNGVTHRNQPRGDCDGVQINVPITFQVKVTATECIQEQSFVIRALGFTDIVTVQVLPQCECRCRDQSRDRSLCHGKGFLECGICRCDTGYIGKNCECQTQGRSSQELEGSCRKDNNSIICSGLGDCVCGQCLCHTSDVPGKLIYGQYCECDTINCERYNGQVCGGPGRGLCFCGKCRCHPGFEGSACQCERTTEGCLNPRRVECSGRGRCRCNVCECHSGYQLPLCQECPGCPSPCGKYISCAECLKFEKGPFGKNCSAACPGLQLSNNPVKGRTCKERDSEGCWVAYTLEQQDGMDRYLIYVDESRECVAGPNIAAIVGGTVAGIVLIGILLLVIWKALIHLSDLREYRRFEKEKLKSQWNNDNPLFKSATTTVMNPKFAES

Structure (SMILES) | IC50
CN(C)C(=O)c1ccnc(C2(NC(=O)C3(NC(=O)c4cnc5n4[C@](C)(Cc4ccc(C#N)cc4)C(=O)N5c4cc(Cl)cc(Cl)c4)CC3)CC2)c1 [compound 38] | 0.87 nM
C[C@@]1(Cc2ccc(C#N)cc2)C(=O)N(c2cc(Cl)cc(Cl)c2)c2ncc(C(=O)NC3(C(=O)NC4(c5cccc(C(=O)N6CCNCC6)n5)CC4)CC3)n21 [compound 39] | 3.6 nM
C[C@@]1(Cc2ccc(C#N)cc2)C(=O)N(c2cc(Cl)cc(Cl)c2)c2ncc(C(=O)NC3(C(=O)NC4(c5cccc(C(=O)NCCN)n5)CC4)CC3)n21 [compound 40] | 1.3 nM
C[C@@]1(Cc2ccc(C#N)cc2)C(=O)N(c2cc(Cl)cc(Cl)c2)c2ncc(C(=O)NC3(C(=O)NC4(c5cc(C(=O)N6CCCCC6CO)ccn5)CC4)CC3)n21 (stereo partly drawn) [compound 44] | 0.88 nM
CC(=O)N(C)C1CCN(C(=O)c2cccc(C3(NC(=O)C4(NC(=O)c5cnc6n5[C@](C)(Cc5ccc(C#N)cc5)C(=O)N6c5cc(Cl)cc(Cl)c5)CC4)CC3)n2)C1 (stereo partly drawn) [compound 45] | 4.5 nM
CC(NC(=O)c1cccc(C2(NC(=O)C3(NC(=O)c4cnc5n4[C@](C)(Cc4ccc(C#N)cc4)C(=O)N5c4cc(Cl)cc(Cl)c4)CC3)CC2)n1)c1cccnc1 (stereo partly drawn) [compound 47] | 3.9 nM
C[C@@]1(Cc2ccc(C#N)cc2)C(=O)N(c2cc(Cl)cc(Cl)c2)c2ncc(C(=O)NC3(C(=O)NC4(c5cccc(C(=O)N6CC[C@@H](O)C6)n5)CC4)CC3)n21 [compound 48] | 2.4 nM
C[C@@]1(Cc2ccc(C#N)cc2)C(=O)N(c2cc(Cl)cc(Cl)c2)c2ncc(C(=O)NC3(C(=O)NC4(c5ccc(C(=O)NCc6ccncc6)cn5)CC4)CC3)n21 [compound 50] | 0.97 nM
C[C@@H](NC(=O)c1ccnc(C2(NC(=O)C3(NC(=O)c4cnc5n4[C@](C)(Cc4ccc(C#N)cc4)C(=O)N5c4cc(Cl)cc(Cl)c4)CC3)CC2)c1)c1ccccc1 [compound 53] | 2.4 nM
CC(=O)NC1CCN(C(=O)c2ccnc(C3(NC(=O)C4(NC(=O)c5cnc6n5[C@](C)(Cc5ccc(C#N)cc5)C(=O)N6c5cc(Cl)cc(Cl)c5)CC4)CC3)c2)C1 (stereo partly drawn) [compound 54] | 1.2 nM
C[C@@]1(Cc2ccc(C#N)cc2)C(=O)N(c2cc(Cl)cc(Cl)c2)c2ncc(C(=O)NC3(C(=O)NC4(c5cccc(C(=O)NCCC(N)=O)n5)CC4)CC3)n21 [compound 57] | 0.82 nM
CN(C)C1CCN(C(=O)c2ccc(C3(NC(=O)C4(NC(=O)c5cnc6n5[C@](C)(Cc5ccc(C#N)cc5)C(=O)N6c5cc(Cl)cc(Cl)c5)CC4)CC3)nc2)C1 (stereo partly drawn) [compound 61] | 1.8 nM
CN(C)CCNC(=O)c1ccnc(C2(NC(=O)C3(NC(=O)c4cnc5n4[C@](C)(Cc4ccc(C#N)cc4)C(=O)N5c4cc(Cl)cc(Cl)c4)CC3)CC2)c1 [compound 62] | 1.1 nM
CN(C)CCNC(=O)c1cccc(C2(NC(=O)C3(NC(=O)c4cnc5n4[C@](C)(Cc4ccc(C#N)cc4)C(=O)N5c4cc(Cl)cc(Cl)c4)CC3)CC2)n1 [compound 63] | 1.7 nM
C[C@@H](NC(=O)c1ccc(C2(NC(=O)C3(NC(=O)c4cnc5n4[C@](C)(Cc4ccc(C#N)cc4)C(=O)N5c4cc(Cl)cc(Cl)c4)CC3)CC2)nc1)c1ccccc1 [compound 65] | 2.1 nM
C[C@@]1(Cc2ccc(C#N)cc2)C(=O)N(c2cc(Cl)cc(Cl)c2)c2ncc(C(=O)NC3(C(=O)NC4(c5cccc(C(=O)N6CCC[C@@H]6C(N)=O)n5)CC4)CC3)n21 [compound 67] | 2.6 nM
CC(O)CNC(=O)c1cccc(C2(NC(=O)C3(NC(=O)c4cnc5n4[C@](C)(Cc4ccc(C#N)cc4)C(=O)N5c4cc(Cl)cc(Cl)c4)CC3)CC2)n1 (stereo partly drawn) [compound 74] | 1.4 nM
COCCNC(=O)c1cccc(C2(NC(=O)C3(NC(=O)c4cnc5n4[C@](C)(Cc4ccc(C#N)cc4)C(=O)N5c4cc(Cl)cc(Cl)c4)CC3)CC2)n1 [compound 75] | 2.2 nM
C[C@@]1(Cc2ccc(C#N)cc2)C(=O)N(c2cc(Cl)cc(Cl)c2)c2ncc(C(=O)NC3(C(=O)NC4(c5cc(C(=O)N6CCCC(CO)C6)ccn5)CC4)CC3)n21 (stereo partly drawn) [compound 80] | 0.99 nM
C[C@@]1(Cc2ccc(C#N)cc2)C(=O)N(c2cc(Cl)cc(Cl)c2)c2ncc(C(=O)NC3(C(=O)NC4(c5ccc(C(=O)NCc6ccccc6)cn5)CC4)CC3)n21 [compound 81] | 1.5 nM
C[C@@H](NC(=O)c1cccc(C2(NC(=O)C3(NC(=O)c4cnc5n4[C@](C)(Cc4ccc(C#N)cc4)C(=O)N5c4cc(Cl)cc(Cl)c4)CC3)CC2)n1)C(N)=O [compound 83] | 1.3 nM

The next molecules have a lower IC50 than those just listed; values first:

IC50 | Structure (SMILES)
0.14 nM | COCCNC(=O)c1ccc(C2(NC(=O)C3(NC(=O)c4cnc5n4[C@](C)(Cc4ccc(C#N)cc4)C(=O)N5c4cc(Cl)cc(Cl)c4)CC3)CC2)nc1 [compound 41]
0.35 nM | C[C@@]1(Cc2ccc(C#N)cc2)C(=O)N(c2cc(Cl)cc(Cl)c2)c2ncc(C(=O)NC3(C(=O)NC4(c5ccc(C(=O)N6CCOCC6)cn5)CC4)CC3)n21 [compound 42]
0.74 nM | C[C@@]1(Cc2ccc(C#N)cc2)C(=O)N(c2cc(Cl)cc(Cl)c2)c2ncc(C(=O)NC3(C(=O)NC4(c5cc(C(=O)N6CCCC(C(N)=O)C6)ccn5)CC4)CC3)n21 (stereo partly drawn) [compound 43]
0.78 nM | CC(NC(=O)c1ccc(C2(NC(=O)C3(NC(=O)c4cnc5n4[C@](C)(Cc4ccc(C#N)cc4)C(=O)N5c4cc(Cl)cc(Cl)c4)CC3)CC2)nc1)c1ccncc1 (stereo partly drawn) [compound 46]
0.56 nM | C[C@H](CO)NC(=O)c1ccnc(C2(NC(=O)C3(NC(=O)c4cnc5n4[C@](C)(Cc4ccc(C#N)cc4)C(=O)N5c4cc(Cl)cc(Cl)c4)CC3)CC2)c1 [compound 49]
0.58 nM | C[C@@]1(Cc2ccc(C#N)cc2)C(=O)N(c2cc(Cl)cc(Cl)c2)c2ncc(C(=O)NC3(C(=O)NC4(c5cccc(C(=O)N6CC(O)C6)n5)CC4)CC3)n21 [compound 51]
0.6 nM | C[C@@]1(Cc2ccc(C#N)cc2)C(=O)N(c2cc(Cl)cc(Cl)c2)c2ncc(C(=O)NC3(C(=O)NC4(c5ccc(C(=O)N6CCNCC6)cn5)CC4)CC3)n21 [compound 56]
0.7 nM | C[C@@]1(Cc2ccc(C#N)cc2)C(=O)N(c2cc(Cl)cc(Cl)c2)c2ncc(C(=O)NC3(C(=O)NC4(c5cc(C(=O)N6CCOCC6)ccn5)CC4)CC3)n21 [compound 58]
0.34 nM | C[C@@]1(Cc2ccc(C#N)cc2)C(=O)N(c2cc(Cl)cc(Cl)c2)c2ncc(C(=O)NC3(C(=O)NC4(c5cc(C(=O)NCc6ccncc6)ccn5)CC4)CC3)n21 [compound 64]
0.28 nM | C[C@@]1(Cc2ccc(C#N)cc2)C(=O)N(c2cc(Cl)cc(Cl)c2)c2ncc(C(=O)NC3(C(=O)NC4(c5ccc(C(=O)NC(CO)CO)cn5)CC4)CC3)n21 [compound 66]
0.5 nM | CC(=O)NCCNC(=O)c1cccc(C2(NC(=O)C3(NC(=O)c4cnc5n4[C@](C)(Cc4ccc(C#N)cc4)C(=O)N5c4cc(Cl)cc(Cl)c4)CC3)CC2)n1 [compound 68]
0.47 nM | CC(C)(O)CNC(=O)c1ccnc(C2(NC(=O)C3(NC(=O)c4cnc5n4[C@](C)(Cc4ccc(C#N)cc4)C(=O)N5c4cc(Cl)cc(Cl)c4)CC3)CC2)c1 [compound 69]
0.74 nM | C[C@@]1(Cc2ccc(C#N)cc2)C(=O)N(c2cc(Cl)cc(Cl)c2)c2ncc(C(=O)NC3(C(=O)NC4(c5ccc(C(=O)NC6CCC6)cn5)CC4)CC3)n21 [compound 71]
0.45 nM | C[C@@]1(Cc2ccc(C#N)cc2)C(=O)N(c2cc(Cl)cc(Cl)c2)c2ncc(C(=O)NC3(C(=O)NC4(c5cc(C(=O)NCc6cccnc6)ccn5)CC4)CC3)n21 [compound 72]
0.37 nM | CC(O)CNC(=O)c1ccc(C2(NC(=O)C3(NC(=O)c4cnc5n4[C@](C)(Cc4ccc(C#N)cc4)C(=O)N5c4cc(Cl)cc(Cl)c4)CC3)CC2)nc1 (stereo partly drawn) [compound 73]
0.79 nM | C[C@@]1(Cc2ccc(C#N)cc2)C(=O)N(c2cc(Cl)cc(Cl)c2)c2ncc(C(=O)NC3(C(=O)NC4(c5cc(C(=O)NCc6ccco6)ccn5)CC4)CC3)n21 [compound 76]
0.68 nM | C[C@@]1(Cc2ccc(C#N)cc2)C(=O)N(c2cc(Cl)cc(Cl)c2)c2ncc(C(=O)NC3(C(=O)NC4(c5ccc(C(=O)NCCN)cn5)CC4)CC3)n21 [compound 78]
0.67 nM | C[C@@]1(Cc2ccc(C#N)cc2)C(=O)N(c2cc(Cl)cc(Cl)c2)c2ncc(C(=O)NC3(C(=O)NC4(c5cc(C(=O)NCc6ccccn6)ccn5)CC4)CC3)n21 [compound 79]
0.53 nM | C[C@@]1(Cc2ccc(C#N)cc2)C(=O)N(c2cc(Cl)cc(Cl)c2)c2ncc(C(=O)NC3(C(=O)NC4(c5ccc(C(=O)NCCc6cccnc6)cn5)CC4)CC3)n21 [compound 84]
0.34 nM | C[C@@]1(Cc2ccc(C#N)cc2)C(=O)N(c2cc(Cl)cc(Cl)c2)c2ncc(C(=O)NC3(C(=O)NC4(c5ccc(C(=O)N6CCC(CO)CC6)cn5)CC4)CC3)n21 [compound 85]
0.56 nM | CC(C)(CO)NC(=O)c1ccc(C2(NC(=O)C3(NC(=O)c4cnc5n4[C@](C)(Cc4ccc(C#N)cc4)C(=O)N5c4cc(Cl)cc(Cl)c4)CC3)CC2)nc1 [compound 86]
